Test results published in the supplement of paper PMC10307832.

Assays:
Assay in all cases: relative viability (nuclei count vs DMSO), 5 days (fraction); higher = more cells survive
[1] = compound: C1=CC(=CC=C1NC(=S)NNC2=C(C=C(C=C2[N+](=O)[O-])C(F)(F)F)[N+](=O)[O-])F [Kobe2602] + C[C@]1(O)C[C@@H](c2nc(-c3ccc4ccc(-c5ccccc5)nc4c3)c3c(N)nccn32)C1 [Linsitinib] (partner 1 µM)
In short: (§1)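 Values are medians from duplicate plates. Each reflects relative viability, defined as the nuclei count of treated wells over that of vehicle wells. Lung cancer cell lines in 1536-well plates were pin-tool dosed one day after seeding with one drug alone or with a fixed anchor-drug dose plus five library-drug doses (not always all listed) in √10 steps, then fixed, stained and imaged at 4× after 5 days.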

[2] = compound: COc1cc2nccc(Oc3ccc(NC(=O)C4(C(=O)Nc5ccc(F)cc5)CC4)cc3)c2cc1OC [Cabozantinib] + Nc1ncn([C@H]2C[C@H](O)[C@@H](CO)O2)c(=O)n1 [Decitabine] (partner 2 µM)
In short: as §1

[3] = compound: COc1cc2nccc(Oc3ccc(NC(=O)C4(C(=O)Nc5ccc(F)cc5)CC4)cc3)c2cc1OC [Cabozantinib] + COc1cc2c(Oc3ccc(NC(=O)C4(C(=O)Nc5ccc(F)cc5)CC4)cc3F)ccnc2cc1OCCCN1CCOCC1 [Foretinib] (partner 0.25 µM)
In short: as §1

[4] = compound: O[C@@H](COc1cccc2ncccc12)CN1CCN([C@@H]2c3ccccc3[C@@H]3[C@H](c4ccccc42)C3(F)F)CC1 [Zosuquidar] + Cc1nc(NC(=O)N2CCC[C@H]2C(N)=O)sc1-c1ccnc(C(C)(C)C(F)(F)F)c1 [Alpelisib] (partner 2 µM)
In short: as §1

| Cell Line | relative viability ([1]; first compound 0.2 µM) | relative viability ([1]; first compound 0.6325 µM) | relative viability ([1]; first compound 2 µM) | relative viability ([1]; first compound 6.325 µM) | relative viability ([1]; first compound 20 µM) | relative viability ([2]; first compound 0.02 µM) | relative viability ([2]; first compound 0.06325 µM) | relative viability ([2]; first compound 0.2 µM) | relative viability ([2]; first compound 0.6325 µM) | relative viability ([2]; first compound 2 µM) | relative viability ([3]; first compound 0.02 µM) | relative viability ([3]; first compound 0.06325 µM) | relative viability ([3]; first compound 0.6325 µM) | relative viability ([3]; first compound 2 µM) | relative viability ([4]; first compound 0.01 µM) | relative viability ([4]; first compound 0.03162 µM) | relative viability ([4]; first compound 0.1 µM) | relative viability ([4]; first compound 0.3162 µM) | relative viability ([4]; first compound 1 µM) | relative viability ([3]; first compound 0.2 µM) |
| --- | --- | --- | --- | --- | --- | --- | --- | --- | --- | --- | --- | --- | --- | --- | --- | --- | --- | --- | --- | --- |
| COR-L 105 | 0.711 | 0.985 | 0.574 | 0.944 | 0.988 | 0.606 | 0.764 | 0.582 | 0.735 | 0.69 | 1.36 | 1.01 | 1.14 | 0.969 | 1.07 | 0.852 | 1.11 | 1.07 | 1.12 |  |
| NCI-H2009 | 1.13 | 1.2 | 1.1 | 1.19 | 1.15 | 0.305 | 0.384 | 0.447 | 0.394 | 0.405 | 1.24 | 1.26 | 1.28 | 1.29 | 1.08 | 0.96 | 1.19 | 1.15 | 1.14 | 1.19 |
| RERF-LC-KJ | 0.826 | 0.868 | 0.814 | 0.829 | 0.824 | 0.717 | 0.735 | 0.649 | 0.666 | 0.746 | 0.921 | 0.852 | 0.899 | 0.943 | 0.809 | 0.913 | 0.745 | 0.887 | 0.874 | 0.863 |
| NCI-H358 | 0.684 | 0.77 | 0.771 | 0.758 | 0.732 | 0.226 | 0.224 | 0.214 | 0.218 | 0.233 | 0.662 | 0.839 | 0.662 | 0.652 | 0.914 | 0.833 | 0.832 | 0.839 | 0.893 | 0.668 |
| NCI-H2085 | 0.926 | 0.829 | 0.864 | 0.977 | 0.97 | 0.583 | 0.549 | 0.58 | 0.626 | 0.642 | 0.765 | 1.05 | 1.05 | 0.855 | 0.957 | 0.917 | 0.893 | 1 | 0.977 | 0.982 |
| NCI-H2405 | 0.961 | 1.06 | 0.932 | 0.971 | 0.994 | 0.725 | 0.788 | 0.77 | 0.752 | 0.764 | 1.01 | 1.04 | 1.05 | 1.01 | 0.968 | 0.745 | 0.605 | 0.972 | 0.837 | 1.05 |
| ABC-1 | 0.609 | 0.984 | 0.722 | 0.876 | 0.735 |  | 0.846 | 1.05 | 1.05 | 0.982 | 1.15 | 1.13 | 1 | 0.932 | 0.949 | 1.07 | 1.06 | 0.994 | 1.16 | 1.11 |
| 201T | 0.968 | 1.04 | 1.05 | 0.955 | 0.941 | 0.874 | 0.945 | 0.839 | 0.836 | 0.826 |  | 1.21 | 1.05 | 1.14 | 0.891 | 0.965 | 0.896 | 1.01 | 1.06 | 1.05 |
